In patent US20050244592A1, “Recording paper and image recording method” (FUJI XEROX CO., LTD., priority 2004, published 2005):

Experiment: Solubility of the carboxylic acid in pure water
Conditions: maximum dissolution based on 100 g of pure water at 20° C.

Solubility | Molecule
10 g/100 g | O=C(O)c1nc(C(=O)O)c(C(=O)O)c(C(=O)O)c1C(=O)O [Pyridine pentacarboxylic acid]
7 g/100 g | Furan carboxylic acid
